IC50 data for two molecules are collected here from PMC10088752 (Journal of Natural Medicines, 2023).

The target of this experiment is BACE1 (Homo sapiens, UniProt P56817). The experiment in a line: BACE1 FRET assay. Type of experiment: biochemical.
Chain of BACE1 (P56817 46-501): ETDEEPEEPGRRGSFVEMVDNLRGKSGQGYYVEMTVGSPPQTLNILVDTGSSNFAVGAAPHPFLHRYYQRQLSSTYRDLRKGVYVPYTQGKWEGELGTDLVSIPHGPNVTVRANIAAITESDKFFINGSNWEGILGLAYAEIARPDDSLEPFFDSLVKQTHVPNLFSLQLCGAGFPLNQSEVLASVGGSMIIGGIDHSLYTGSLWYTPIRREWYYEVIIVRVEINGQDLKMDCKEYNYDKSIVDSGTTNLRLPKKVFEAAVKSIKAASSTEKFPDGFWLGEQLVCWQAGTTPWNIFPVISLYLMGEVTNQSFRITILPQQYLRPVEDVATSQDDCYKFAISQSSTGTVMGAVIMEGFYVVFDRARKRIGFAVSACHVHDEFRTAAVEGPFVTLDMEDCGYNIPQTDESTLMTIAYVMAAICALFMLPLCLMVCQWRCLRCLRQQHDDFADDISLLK

The IC50 is the concentration needed to halve the response being measured. `COc1cc(OC)c2c(O)c3c(=O)cc(C)oc3c(-c3c(OC)cc4cc(O)c5c(=O)cc(C)oc5c4c3OC)c2c1` [Compound 4, fonsecinone A]: the concentration for half-maximal inhibition (IC50) came out at 14.9 µM.

`COc1cc(OC)c2c(O)c3c(=O)cc(C)oc3c(-c3c(O)cc4cc(O)c5c(=O)cc(C)oc5c4c3OC)c2c1` [Compound 7, asperpyrone A]: it took 36.5 µM to reach half-maximal inhibition (IC50).
